Results taken from patent US10899754B2, “Modulators of indoleamine 2,3-dioxygenase” (GLAXOSMITHKLINE INTELLECTUAL PROPERTY DEVELOPMENT LIMITED, priority 2016, dated 2021).

Experiments:
Format in all cases: cell-based
[1] = test system: human peripheral blood mononuclear cells (PBMC); test: PBMC cytotoxicity assay (CellTiter-Glo); conditions: 2 days, pCC50
In short: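 % cytotoxicity was taken from CellTiter-Glo luminescence, using wells without cells and stimulated DMSO wells as references, and fitted by four-parameter curve to give XC50. Cells were human PBMC at 50,000 per well, activated with 100 ng/ml IFN-γ plus 50 ng/ml LPS. Incubation with 11-point, 3-fold dilution series ran for 2 days at 37 °C.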

[2] = test system: human epithelial HeLa cells; test: HeLa cytotoxicity assay (CellTiter-Glo); conditions: pCC50
In short: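 Read-out is CellTiter-Glo luminescence after 2 days at 37 °C, on IFN-γ-stimulated (10 nM) HeLa cells seeded at 5,000/well with compounds in 11-point 3-fold dose series. pCC50 from four-parameter curve fit; wells without cells set 100% cytotoxicity, stimulated cells with DMSO set 0%.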

[3] = target: T1, indoleamine 2, 3-dioxygenase (IDO1) (Homo sapiens, UniProt P14902); test: IDO1 PBMC RapidFire MS assay (kynurenine detection by mass spectrometry); design: to induce the expression of indoleamine 2, 3-dioxygenase (IDO1); host or cells: human PBMC stimulated with IFN-gamma and LPS; conditions: human PBMC stimulated with IFN-γ and LPS, 2 days, pIC50, read-out: PBMC PXC50 (converted)
In short: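 Kynurenine output, read by RapidFire mass spectrometry as ratio to an internal standard, was measured after 2-day compound exposure (11-point, 3-fold dilutions) of human PBMCs induced with 100 ng/ml IFN-γ and 50 ng/ml LPS. Cell viability tracked alongside via ATP luminescence; XC50 from curve fitting.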

[4] = target: T1, indoleamine 2, 3-dioxygenase (IDO1); test: IDO1 HeLa RapidFire MS assay (kynurenine detection by mass spectrometry); design: to induce the expression of indoleamine 2, 3-dioxygenase (IDO1); conditions: HeLa cells, pIC50, read-out: IDO1_HELA_PXC50 (converted)
In short: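 Compound potency reported as pIC50 from kynurenine/internal-standard ratio (RapidFire MS) in supernatant of IFN-γ-induced (10 nM) HeLa cells, 5,000 per well, after 2 days' treatment with 11-point dilutions. Cytotoxicity in the same format by luminescent ATP detection, reported as pCC50.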

T1 sequence (P14902 whole entry): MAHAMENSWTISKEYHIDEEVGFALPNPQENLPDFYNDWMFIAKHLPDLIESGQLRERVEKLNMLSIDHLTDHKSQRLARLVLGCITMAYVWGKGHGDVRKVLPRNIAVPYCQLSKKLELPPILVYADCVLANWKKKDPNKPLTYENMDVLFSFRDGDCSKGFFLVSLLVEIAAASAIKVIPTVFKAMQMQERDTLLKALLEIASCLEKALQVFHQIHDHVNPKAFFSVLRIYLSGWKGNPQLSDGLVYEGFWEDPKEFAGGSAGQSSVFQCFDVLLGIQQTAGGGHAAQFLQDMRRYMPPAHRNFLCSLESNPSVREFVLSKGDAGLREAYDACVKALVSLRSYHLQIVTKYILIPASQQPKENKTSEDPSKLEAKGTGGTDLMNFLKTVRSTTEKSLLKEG

SMILES	IC50 [3]	IC50 [4]	PBMC TOX PXC50 [1]	HELA_IDO1_TOX_PXC50 [2]
CC(C)CN(c1ccc(C(C)OCC(=O)O)cc1Nc1nc(Cl)ns1)C1CCCCC1 (stereo not shown) [example 171, 2-(1-{3-[(3-chloro-1,2,4-thiadiazol-5-yl)amino]-4-[cyclohexyl(2-methylpropyl)amino]phenyl}ethoxy)acetic acid]	25.1 nM	158 nM	<5	<5
CC(C)CN(c1ccc([C@H](C)CC(=O)O)cc1Nc1cccc(C(F)(F)F)n1)C1CCCCC1 [example 172, (3R)-3-{4-[cyclohexyl(2-methylpropyl)amino]-3-{[6-(trifluoromethyl)pyridin-2-yl]amino}phenyl}butanoic acid]	39.8 nM	79.4 nM	<5	<5
CC(C)CN(c1ccc(C(C)OCC(=O)O)cc1Nc1nc2ccccc2[nH]1)C1CCCCC1 (stereo not shown) [example 173, 2-(1-{3-[(1H-1,3-benzodiazol-2-yl)amino]-4-[cyclohexyl(2-methylpropyl)amino]phenyl}ethoxy)acetic acid]	25.1 nM	20 nM	<5	<5
CC(C)CN(CC(C)C)c1ccc(C2CC2C(=O)O)cc1Nc1nc(C(F)(F)F)ns1 (stereo not shown) [example 174, 2-{4-[bis(2-methylpropyl)amino]-3-{[3-(trifluoromethyl)-1,2,4-thiadiazol-5-yl]amino}phenyl}cyclo-propane-1-carboxylic acid]	12.6 nM	12.6 nM	<5	<5
CC(C)CN(CC(C)C)c1ccc(C2CC2C(=O)O)cc1Nc1nc(Cl)ns1 (stereo not drawn) [example 177, (1R*,2R**)-2-{4-[bis(2-methylpropyl)amino]-3-[(3-chloro-1,2,4-thiadiazol-5-yl)amino]phenyl}cyclo-propane-1-carboxylic acid]	31.6 nM	158 nM	<5	<5
CC(C)CN(c1ccc([C@H](C)CC(=O)O)cc1NC1CCC1)C1CCCCC1 [example 181, (3R)-3-[3-(cyclobutylamino)-4-[cyclohexyl(2-methylpropyl)amino]phenyl]butanoic acid]	158 nM	316 nM	<5	<5
CC(C)CN(c1ccc([C@H](C)CC(=O)O)cc1NC1CCCC(C)(C)C1)C1CCCCC1 (stereo partly drawn) [example 183, (3R)-3-{4-[cyclohexyl(2-methylpropyl)amino]-3-[(3,3-dimethylcyclohexyl)ami-no]phenyl}butanoic acid]	200 nM	398 nM	<5	<5
CC(C)CN(c1ccc(C(C)CC(=O)O)cc1Nc1nc(C(F)(F)F)ns1)C1CCOCC1 (stereo not shown) [example 202, 3-{4-[(2-methylpropyl)(oxan-4-yl)amino]-3-{[3-(trifluoromethyl)-1,2,4-thiadiazol-5-yl]amino}phenyl}butanoic acid]	1.58 nM	3.16 nM	<5	<5
COCCc1nnc(Nc2cc([C@H](C)CC(=O)O)ccc2N(CC(C)C)CC(C)C)[nH]1 [example 203, (3R)-3-{4-[bis(2-methylpropyl)amino]-3-{[5-(2-methoxyethyl)-4H-1,2,4-triazol-3-yl]amino}phenyl}butanoic acid]	31.6 nM	63.1 nM	<5	<5
CC(C)CN(c1ccc([C@H](C)CC(=O)O)cc1Nc1nnc(C2CC2)[nH]1)C1CCOCC1 [example 210, (3R)-3-{3-[(5-cyclopropyl-4H-1,2,4-triazol-3-yl)amino]-4-[(2-methylpropyl)(oxan-4-yl)amino]phenyl}butanoic acid]	39.8 nM	50.1 nM	<5	<5
CC(C)CN(c1ccc([C@H](C)CC(=O)O)cc1Nc1nc(C2CC2)cs1)C1CCOCC1 [example 211, (3R)-3-{3-[(4-cyclopropyl-1,3-thiazol-2-yl)amino]-4-[(2-methylpropyl)(oxan-4-yl)amino]phenyl}butanoic acid]	20 nM	25.1 nM	<5	<5
CC(C)CN(c1ccc([C@H](C)CC(=O)O)cc1Nc1nnc(C(C)C)[nH]1)C1CCOCC1 [example 212, (3R)-3-{4-[(2-methylpropyl)(oxan-4-yl)amino]-3-{[5-(propan-2-yl)-4H-1,2,4-triazol-3-yl]amino}phenyl}butanoic acid]	63.1 nM	200 nM	<5	<5
COCc1nnc(Nc2cc([C@H](C)CC(=O)O)ccc2N(CC(C)C)C2CCOCC2)[nH]1 [example 213, (3R)-3-(3-{[5-(methoxymethyl)-4H-1,2,4-triazol-3-yl]amino}-4-[(2-methylpropyl)(oxan-4-yl)amino]phenyl)butanoic acid]	200 nM	794 nM	<5	<5
COCCc1nnc(Nc2cc([C@H](C)CC(=O)O)ccc2N(CC(C)C)C2CCCCC2)[nH]1 [example 214, (3R)-3-{4-[cyclohexyl(2-methylpropyl)amino]-3-{[5-(2-methoxyethyl)-4H-1,2,4-triazol-3-yl]amino}phenyl}butanoic acid]	12.6 nM	12.6 nM	<5	<5
Cc1nnc(Nc2cc([C@H](C)CC(=O)O)ccc2N(CC(C)C)C2CCOCC2)s1 [example 215, (3R)-3-{3-[(5-methyl-1,3,4-thiadiazol-2-yl)amino]-4-[(2-methylpropyl)(oxan-4-yl)amino]phenyl}butanoic acid]	31.6 nM	20 nM	<5	<5

The next lines start with results.

IC50 [3]	IC50 [4]	SMILES	PBMC TOX PXC50 [1]	HELA_IDO1_TOX_PXC50 [2]
20 nM	100 nM	CNC(=O)N1CCC(N(CC(C)C)c2ccc([C@H](C)CC(=O)O)cc2Nc2nc(C(F)(F)F)ns2)CC1 [example 262, (3R)-3-(4-{[1-(methylcarbamoyl)piper-idin-4-yl](2-methylpropyl)amino}-3-{[3-(trifluoromethyl)-1,2,4-thiadiazol-5-yl]amino}phenyl)butanoic acid]	<5	<5
63.1 nM	200 nM	CC(C)CN(c1ccc(-c2ccccc2C(=O)O)cc1Nc1cccc(Cl)n1)C1CCCCC1 [example 266, 3′-[(6-chloropyridin-2-yl)amino]-4′-[cyclohexyl(2-methylpropyl)amino]-[1,1′-biphenyl]-2-carboxylic acid]	<5	<5
31.6 nM	316 nM	CC(C)CN(c1ccc(-c2cccnc2C(=O)O)cc1Nc1nc(C(F)(F)F)ns1)C1CCOCC1 [example 269, 3-{4-[(2-methylpropyl)(oxan-4-yl)amino]-3-{[3-(trifluoromethyl)-1,2,4-thiadiazol-5-yl]amino}phenyl}pyridine-2-carboxylic acid]	<5	<5
> 10000 nM	3.98 nM	CO[C@H]1CC[C@@H](N(CC(C)C)c2ccc(-c3ccccc3C(=O)O)cc2Nc2nc(C(F)(F)F)ns2)CC1 [example 276, 4′-[(2-methylpropyl)[(1s,4s)-4-methoxycyclohexyl]ami-no]-3′-{[3-(trifluoromethyl)-1,2,4-thiadiazol-5-yl]amino}-[1,1′-biphenyl]-2-carboxylic acid]	<5	<5
20 nM	100 nM	CC(C)CN(c1ccc(-c2ccccc2C(=O)O)cc1Nc1nc(C(F)(F)F)ns1)[C@H]1CC[C@@H](O)CC1 [example 279, 4′-[(2-methylpropyl)[(1s,4s)-4-hydroxycyclohexyl]amino]-3′-{[3-(trifluoromethyl)-1,2,4-thiadiazol-5-yl]amino}-[1,1′-biphenyl]-2-carboxylic acid]	<5	<5
200 nM	398 nM	COCCN(c1ccc(-c2ccccc2C(=O)O)cc1Nc1nc2ccccc2o1)C1CCCCC1 [example 284, 3′-[(1,3-benzoxazol-2-yl)amino]-4′-[cyclohexyl(2-methoxyethyl)amino]-[1,1′-biphenyl]-2-carboxylic acid]	<5	<5
200 nM	501 nM	Cc1nsc(Nc2cc(-c3ccccc3C(=O)O)ccc2N(CC(C)C)CC(C)C)n1 [example 286, 4′-[bis(2-methylpropyl)amino]-3′-[(3-methyl-1,2,4-thiadiazol-5-yl)amino]-[1,1′-biphenyl]-2-carboxylic acid]	<5	<5
